Source: US11708359B2, “Monoacylglycerol lipase modulators” (Janssen Pharmaceutica NV, priority 2020, dated 2023)
Read-outs that look alike come from different tables or passages of the source.

Target: human MGL from HeLa cells (Homo sapiens (Human), UniProt Q99685)
Assay: MGL in vitro activity assay ([glycerol-1,3-3H]-oleoyl glycerol cleavage, activated carbon filter)
Type: biochemical
Experimental: The assay consists of combining endogenously expressed MGL from HeLa cells with test compounds, adding[glycerol-1,3-^3H]-oleoyl glycerol, incubating for one hour, and then measuring the amount of cleaved[1,3-^3H]-glycerol that passes through an activated carbon filter. The amount of cleaved, tritiated glycerol passing through the carbon filter is proportional to the activity of the MGL enzyme in a particular well/test condition.
Standard conditions for this assay combine 300 nM [Glycerol-1,3-^3H]-oleoyl glycerol with human MGL from HeLa cells and test compounds for one hour, after which the reaction is filtered through activated carbon and tritium is measured in the flow through. […] MGL is the predominant hydrolase in HeLa cells/cell homogenates.

[1] = 300 nM [Glycerol-1,3-3H]-oleoyl glycerol, endogenously expressed MGL from HeLa cells, one hour incubation, read-out: MGL IC50

Sequence of human MGL from HeLa cells (Q99685 whole entry): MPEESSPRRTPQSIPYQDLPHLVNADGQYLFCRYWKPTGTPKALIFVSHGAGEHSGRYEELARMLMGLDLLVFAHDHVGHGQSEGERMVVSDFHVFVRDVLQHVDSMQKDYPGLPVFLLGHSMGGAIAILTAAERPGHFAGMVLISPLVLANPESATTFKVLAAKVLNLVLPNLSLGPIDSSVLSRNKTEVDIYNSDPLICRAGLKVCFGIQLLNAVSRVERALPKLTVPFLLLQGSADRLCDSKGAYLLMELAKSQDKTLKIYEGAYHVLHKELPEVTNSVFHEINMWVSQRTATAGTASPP

Row | SMILES | IC50 [1] [nM] | IC50 [nM]
1 | O=C1N[C@]2(CO1)C[C@H](C(=O)N1CC[C@@]3(c4cccc(OC(F)(F)F)c4)C[C@H]3C1)C2 (stereo in doubt) [Example 51, (2s,4*S)-2-((1*R,6*S)-6-(3-(Trifluoromethoxy)phenyl)-3-azabicyclo[4.1.0]heptane-3-carbonyl)-7-oxa-5-azaspiro[3.4]octan-6-one] | 0.52 | 
2 | O=C1CCC2(CC(C(=O)N3CC[C@]4(c5cccc(OC(F)(F)F)c5)C[C@@H]4C3)C2)N1 (relative stereo) [Example 120, (2r,4*R)-2-((1*S,6*R)-6-(3-(Trifluoromethoxy)phenyl)-3-azabicyclo[4.1.0]heptane-3-carbonyl)-5-azaspiro[3.4]octan-6-one] | 23 | 
3 | CC(C)c1cccc(C23CC2CN(C(=O)[C@H]2C[C@]4(COC(=O)N4)C2)C3)c1 (mixture of isomers) [Example 6, (rac)-(2s,4s)-2-(1-(3-Isopropylphenyl)-3-azabicyclo[3.1.0]hexane-3-carbonyl)-7-oxa-5-azaspiro[3.4]octan-6-one] | 6.9 | 
4 | CC(C)(C)c1ccc(C23CC2CN(C(=O)[C@H]2C[C@]4(CCC(=O)N4)C2)C3)cc1 (mixture of isomers) [Example 13, (rac)-(2r,4s)-2-(1-(4-(tert-Butyl)phenyl)-3-azabicyclo[3.1.0]hexane-3-carbonyl)-5-azaspiro[3.4]octan-6-one] | 9.2 | 
5 | Cc1ccc([C@H]2[C@@H]3CN(C(=O)[C@H]4C[C@]5(COC(=O)N5)C4)C[C@@]32C)cc1OC(F)(F)F (racemic) [Example 114, (rac)-(2s,4*S)-2-((1*R,5*S,6*R)-1-Methyl-6-(4-methyl-3-(trifluoromethoxy)phenyl)-3-azabicyclo[3.1.0]hexane-3-carbonyl)-7-oxa-5-azaspiro[3.4]octan-6-one] | 4.1 | 
6 | O=C1N[C@]2(CO1)C[C@H](C(=O)N1CC3CC3(c3ccc(C(F)(F)F)cc3)C1)C2 (mixture of isomers) [Example 24, (rac)-(2s,4s)-2-(1-(4-(Trifluoromethyl)phenyl)-3-azabicyclo[3.1.0]hexane-3-carbonyl)-7-oxa-5-azaspiro[3.4]octan-6-one] | 15 | 
7 | O=C1CC[C@]2(C[C@H](C(=O)N3CCC4(c5ccc(OC(F)(F)F)cc5)CC4C3)C2)N1 (mixture of isomers) [Example 55, (rac)-(2r,4s)-2-(6-(4-(Trifluoromethoxy)phenyl)-3-azabicyclo[4.1.0]heptane-3-carbonyl)-5-azaspiro[3.4]octan-6-one] | 10 | 
8 | O=C1N[C@]2(CO1)C[C@H](C(=O)N1CCC3(c4cccc(C5CC5)c4)CC3C1)C2 (mixture of isomers) [Example 64, (rac)-(2s,4s)-2-(6-(3-Cyclopropylphenyl)-3-azabicyclo[4.1.0]heptane-3-carbonyl)-7-oxa-5-azaspiro[3.4]octan-6-one] | 0.65 | 
9 | Cc1ccccc1[C@H]1[C@@H]2CN(C(=O)[C@H]3C[C@]4(COC(=O)N4)C3)C[C@@H]21 [Example 98, (2s,4S)-2-((1R,5S,6S)-6-(o-Tolyl)-3-azabicyclo[3.1.0]hexane-3-carbonyl)-7-oxa-5-azaspiro[3.4]octan-6-one] | 150 | 
10 | Cc1ccc(C23CCN(C(=O)[C@H]4C[C@]5(CCC(=O)N5)C4)CC2C3)cc1Cl (mixture of isomers) [Example 68, (rac)-(2r,4s)-2-(6-(3-Chloro-4-methylphenyl)-3-azabicyclo[4.1.0]heptane-3-carbonyl)-5-azaspiro[3.4]octan-6-one] | 5.6 | 
11 | O=C1N[C@]2(CO1)C[C@H](C(=O)N1C[C@@H]3[C@H](C1)[C@H]3c1cccc(OC(F)(F)F)c1)C2 [Example 38, (2s,4S)-2-((1R,5S,6S)-6-(3-(Trifluoromethoxy)phenyl)-3-azabicyclo[3.1.0]hexane-3-carbonyl)-7-oxa-5-azaspiro[3.4]octan-6-one] | 21 | 
12 | O=C1N[C@]2(CO1)C[C@H](C(=O)N1CC3CC3(c3ccc(C4CC4)cc3)C1)C2 (mixture of isomers) [Example 18, (rac)-(2s,4s)-2-(1-(4-Cyclopropylphenyl)-3-azabicyclo[3.1.0]hexane-3-carbonyl)-7-oxa-5-azaspiro[3.4]octan-6-one] | 4.4 | 
13 | CC(C)c1ccc([C@@]23C[C@@H]2CN(C(=O)[C@H]2C[C@]4(COC(=O)N4)C2)C3)cc1 (stereo in doubt) [Example 10, (2s,4*5)-2-((1*R,5*S)-1-(4-Isopropylphenyl)-3-azabicyclo[3.1.0]hexane-3-carbonyl)-7-oxa-5-azaspiro[3.4]octan-6-one] | 2.3 | 
14 | O=C1N[C@]2(CO1)C[C@H](C(=O)N1CC[C@]3(c4cccc(OC(F)(F)F)c4)C[C@@H]3C1)C2 (stereo in doubt) [Example 50, (2s,4*R)-2-((1*S,6*R)-6-(3-(Trifluoromethoxy)phenyl)-3-azabicyclo[4.1.0]heptane-3-carbonyl)-7-oxa-5-azaspiro[3.4]octan-6-one] | 4.2 | 
15 | O=C1CCC2(CC(C(=O)N3CC[C@]4(c5ccc(OC(F)(F)F)cc5)C[C@@H]4C3)C2)N1 (relative stereo) [Example 122, (2r,4*R)-2-((1*S,6*R)-6-(4-(Trifluoromethoxy)phenyl)-3-azabicyclo[4.1.0]heptane-3-carbonyl)-5-azaspiro[3.4]octan-6-one] | 12 | 
16 | Cc1ccc(C23CCN(C(=O)[C@H]4C[C@]5(COC(=O)N5)C4)CC2C3)cc1 (mixture of isomers) [Example 56, (rac)-(2s,4s)-2-(6-(p-Tolyl)-3-azabicyclo[4.1.0]heptane-3-carbonyl)-7-oxa-5-azaspiro[3.4]octan-6-one] | 7.7 | 
17 | Cc1ccc(C23CCN(C(=O)[C@H]4C[C@]5(COC(=O)N5)C4)CC2C3)cc1OC(F)(F)F (mixture of isomers) [Example 75, (rac)-(2s,4s)-2-(6-(4-Methyl-3-(trifluoromethoxy)phenyl)-3-azabicyclo[4.1.0]heptane-3-carbonyl)-7-oxa-5-azaspiro[3.4]octan-6-one] |  | 0.34
18 | C[C@]12CN(C(=O)[C@H]3C[C@]4(COC(=O)N4)C3)C[C@H]1[C@@H]2c1ccc(OC(F)(F)F)cc1 (racemic) [Example 107, (rac)-(2s,4*5)-2-((1*R,5*S,6*R)-1-Methyl-6-(4-(trifluoromethoxy)phenyl)-3-azabicyclo[3.1.0]hexane-3-carbonyl)-7-oxa-5-azaspiro[3.4]octan-6-one] | 73 | 
19 | O=C1N[C@]2(CO1)C[C@H](C(=O)N1CCC3(c4cccc(C(F)(F)F)c4)CC3C1)C2 (mixture of isomers) [Example 57, (rac)-(2s,4s)-2-(6-(3-(Trifluoromethyl)phenyl)-3-azabicyclo[4.1.0]heptane-3-carbonyl)-7-oxa-5-azaspiro[3.4]octan-6-one] | 1.9 | 
20 | O=C1N[C@]2(CO1)C[C@H](C(=O)N1CCC3(c4ccc(OC(F)(F)F)cc4)CC3C1)C2 (mixture of isomers) [Example 54, (rac)-(2s,4s)-2-(6-(4-(Trifluoromethoxy)phenyl)-3-azabicyclo[4.1.0]heptane-3-carbonyl)-7-oxa-5-azaspiro[3.4]octan-6-one] | 2.5 | 
21 | O=C1CCC2(CC(C(=O)N3CC[C@@]4(c5ccc(OC(F)(F)F)cc5)C[C@H]4C3)C2)N1 (relative stereo) [Example 121, (2r,4*5)-2-((1*R,6*S)-6-(4-(Trifluoromethoxy)phenyl)-3-azabicyclo[4.1.0]heptane-3-carbonyl)-5-azaspiro[3.4]octan-6-one] | 42 | 
22 | O=C1N[C@]2(CO1)C[C@H](C(=O)N1CCC3(c4ccccc4)CC3C1)C2 (mixture of isomers) [Example 39, (rac)-(2s,4s)-2-(6-Phenyl-3-azabicyclo[4.1.0]heptane-3-carbonyl)-7-oxa-5-azaspiro[3.4]octan-6-one] | 20 | 
23 | CC(C)(C(=O)O)c1cccc([C@H]2[C@@H]3CN(C(=O)[C@H]4C[C@]5(COC(=O)N5)C4)C[C@@H]32)c1 [Example 105] | 300 | 
24 | O=C1N[C@]2(CO1)C[C@H](C(=O)N1CCC3(c4ccccc4)C(C1)C3(Cl)Cl)C2 (racemic) [Example 124, (rac)-(2s,4s)-2-(7,7-Dichloro-6-phenyl-3-azabicyclo[4.1.0]heptane-3-carbonyl)-7-oxa-5-azaspiro[3.4]octan-6-one] | 32 | 
25 | Cc1cc(C23CC2CN(C(=O)[C@H]2C[C@]4(COC(=O)N4)C2)C3)ccc1OC(F)(F)F (mixture of isomers) [Example 35, (rac)-(2s,4s)-2-(1-(3-Methyl-4-(trifluoromethoxy)phenyl)-3-azabicyclo[3.1.0]hexane-3-carbonyl)-7-oxa-5-azaspiro[3.4]octan-6-one] | 6.5 | 
26 | Cc1ccc([C@H]2[C@@H]3CN(C(=O)[C@H]4C[C@]5(COC(=O)N5)C4)C[C@@H]32)cc1C(F)(F)F [Example 85, (2s,4S)-2-((1R,5S,6S)-6-(4-Methyl-3-(trifluoromethyl)phenyl)-3-azabicyclo[3.1.0]hexane-3-carbonyl)-7-oxa-5-azaspiro[3.4]octan-6-one] | 4.4 | 
27 | Cc1ccc(C23CCN(C(=O)[C@H]4C[C@]5(COC(=O)N5)C4)CC2C3)cc1F (mixture of isomers) [Example 46, (rac)-(2s,4s)-2-(6-(3-Fluoro-4-methylphenyl)-3-azabicyclo[4.1.0]heptane-3-carbonyl)-7-oxa-5-azaspiro[3.4]octan-6-one] | 3.7 | 
28 | CC(C)(C)c1ccc([C@@]23C[C@@H]2CN(C(=O)[C@H]2C[C@]4(CCC(=O)N4)C2)C3)cc1 (stereo in doubt) [Example 14, (2r,4*S)-2-((1*R,5*5)-1-(4-(tert-Butyl)phenyl)-3-azabicyclo[3.1.0]hexane-3-carbonyl)-5-azaspiro[3.4]octan-6-one] | 23 | 
29 | CCc1ccc([C@H]2[C@@H]3CN(C(=O)[C@H]4C[C@]5(CCC(=O)N5)C4)C[C@@H]32)cc1 [Example 87, (2r,4S)-2-((1R,5S,6S)-6-(4-Ethylphenyl)-3-azabicyclo[3.1.0]hexane-3-carbonyl)-5-azaspiro[3.4]octan-6-one] | 131 | 
